Experimental data: ChEMBL document CHEMBL4311969, “Polygala tenuifolia-Acori tatarinowii herbal pair as an inspiration for substituted cinnamic α-asaronol esters: Design, synthesis, anticonvulsant activity, and inhibition of lactate dehydrogenase study” (Eur J Med Chem, 2019)
Activity calls are given as the source filed them. The rule behind the calls is not given here.

Columns and labels:
[1] = Drug uptake in Sprague-Dawley rat heart at 50 mg/kg, po; assay type: ADME, organism-based; settings: in vivo
Mus musculus [2] = assay: Anticonvulsant activity in Kunming mouse assessed as reduction in Sc3-MP-induced clonic seizure rate at 300 mg/kg, ip administered 0.5 hrs before Sc3-MP stimulation relative to control; assay type: functional; set-up: scale not given: the % may be the effect or the level left
Mus musculus [3] = assay: Anticonvulsant activity in Kunming mouse assessed as MES-induced hind limb extension at 50 mg/kg, ip administered 0.5 and 2 hrs before MES stimulation relative to control; assay type: functional
Mus musculus [4] = assay: Anticonvulsant activity in Kunming mouse assessed as reduction in ScPTZ-induced tonic seizure rate at 100 mg/kg, ip administered 0.5 hrs before ScPTZ stimulation relative to control; assay type: functional; set-up: scale not given: the % may be the effect or the level left
[5] = Protective index, ratio of TD50 for neurotoxicity against ip dosed Kunming mouse assessed as time remained in rod measured at 0.5 hrs by rotarod test to ED50 for anticonvulsant activity in ip dosed Kunming mouse assessed as reduction in ScPTZ-induced seizure administered 0.5 hrs before ScPTZ stimulation; assay type: toxicity, organism-based; settings: in vivo, read-out: PI
Homo sapiens = organism: Homo sapiens; assay: Inhibition of human LDH5 at 0.5 mM using sodium pyruvate as substrate by UV-VIS spectrophotometry method relative to control
[6] = molecular target: T1, GABA-A receptor; alpha-1/beta-2/gamma-2 (Homo sapiens, UniProt P14867+P18507+P47870); assay: Agonist activity at GABA alpha1beta2gamma2 receptor in human HEK293T at -50 mV holding potential by whole cell voltage clamp assay; assay type: protein-complex assay
T1 sequence (P14867 whole entry): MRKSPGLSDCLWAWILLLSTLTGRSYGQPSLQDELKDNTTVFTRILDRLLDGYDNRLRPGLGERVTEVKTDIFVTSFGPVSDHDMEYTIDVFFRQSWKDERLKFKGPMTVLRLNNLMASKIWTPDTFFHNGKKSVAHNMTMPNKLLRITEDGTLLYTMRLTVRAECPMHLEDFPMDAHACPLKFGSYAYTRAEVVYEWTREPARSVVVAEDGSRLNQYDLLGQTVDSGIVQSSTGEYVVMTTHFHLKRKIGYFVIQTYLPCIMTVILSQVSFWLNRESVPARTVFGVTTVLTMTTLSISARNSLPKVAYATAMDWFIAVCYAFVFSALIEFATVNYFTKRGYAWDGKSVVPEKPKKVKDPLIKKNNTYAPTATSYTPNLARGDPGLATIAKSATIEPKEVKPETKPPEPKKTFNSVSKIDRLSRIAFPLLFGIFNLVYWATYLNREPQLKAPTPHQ
T1 sequence (P47870 whole entry): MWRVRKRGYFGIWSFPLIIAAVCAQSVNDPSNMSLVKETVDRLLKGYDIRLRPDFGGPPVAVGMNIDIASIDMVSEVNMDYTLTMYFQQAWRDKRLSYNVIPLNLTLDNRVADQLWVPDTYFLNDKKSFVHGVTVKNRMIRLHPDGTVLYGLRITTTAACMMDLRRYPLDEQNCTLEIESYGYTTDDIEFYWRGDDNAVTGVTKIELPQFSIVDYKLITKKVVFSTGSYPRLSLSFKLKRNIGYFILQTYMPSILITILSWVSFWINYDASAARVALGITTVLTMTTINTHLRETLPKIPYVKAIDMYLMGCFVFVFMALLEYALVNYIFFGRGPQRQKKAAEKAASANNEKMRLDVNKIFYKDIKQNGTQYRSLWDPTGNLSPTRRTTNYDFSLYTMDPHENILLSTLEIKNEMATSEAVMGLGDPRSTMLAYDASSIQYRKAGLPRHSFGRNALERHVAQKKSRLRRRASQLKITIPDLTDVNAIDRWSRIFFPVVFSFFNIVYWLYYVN
T1 sequence (P18507 whole entry): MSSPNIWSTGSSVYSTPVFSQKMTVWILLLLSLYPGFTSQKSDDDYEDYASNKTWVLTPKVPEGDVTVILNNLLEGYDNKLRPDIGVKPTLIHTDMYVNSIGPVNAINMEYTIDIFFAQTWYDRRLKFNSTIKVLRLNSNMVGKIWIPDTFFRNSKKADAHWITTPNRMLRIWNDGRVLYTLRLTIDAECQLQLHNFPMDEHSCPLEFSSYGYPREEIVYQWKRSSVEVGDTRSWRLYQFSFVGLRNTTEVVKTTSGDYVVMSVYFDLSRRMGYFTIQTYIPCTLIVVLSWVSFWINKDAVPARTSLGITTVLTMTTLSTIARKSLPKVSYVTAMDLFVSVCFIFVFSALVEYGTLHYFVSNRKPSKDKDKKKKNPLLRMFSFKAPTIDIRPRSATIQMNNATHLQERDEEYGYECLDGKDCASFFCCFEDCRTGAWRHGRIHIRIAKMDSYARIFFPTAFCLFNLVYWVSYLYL

[7] = Half life in Sprague-Dawley rat at 20 mg/kg, iv measured upto 480 mins by LC-MS/MS analysis; assay type: ADME, organism-based; settings: in vivo
[8] = AUC in Sprague-Dawley rat at 20 mg/kg, iv measured upto 480 mins by LC-MS/MS analysis; assay type: ADME, organism-based; set-up: time < 8 hr, dose 20 mg/kg, route intravenous; settings: in vivo
[9] = Half life in Sprague-Dawley rat at 20 mg/kg, po measured upto 480 mins by LC-MS/MS analysis; assay type: ADME, organism-based; settings: in vivo
[10] = Cmax in Sprague-Dawley rat at 20 mg/kg, po measured upto 480 mins by LC-MS/MS analysis; assay type: ADME, organism-based; set-up: dose 20 mg/kg, route oral; settings: in vivo
[11] = Oral bioavailability in Sprague-Dawley rat at 20 mg/kg measured upto 480 mins by LC-MS/MS analysis; assay type: ADME, organism-based; settings: in vivo
[12] = Cmax in Sprague-Dawley rat at 50 mg/kg, po measured upto 480 mins by LC-MS/MS analysis; assay type: ADME, organism-based; set-up: dose 50 mg/kg, route oral; settings: in vivo
[13] = AUC in Sprague-Dawley rat at 50 mg/kg, po measured upto 480 mins by LC-MS/MS analysis; assay type: ADME, organism-based; set-up: time < 8 hr, dose 50 mg/kg, route oral; settings: in vivo
[14] = Oral bioavailability in Sprague-Dawley rat at 50 mg/kg measured upto 480 mins by LC-MS/MS analysis; assay type: ADME, organism-based; settings: in vivo
[15] = Volume of distribution at steady state in Sprague-Dawley rat at 100 mg/kg, po measured upto 480 mins by LC-MS/MS analysis; assay type: ADME, organism-based; settings: in vivo, 8 h
[16] = Drug uptake in Sprague-Dawley rat brain at 50 mg/kg, po; assay type: ADME, organism-based; settings: in vivo
[17] = Drug uptake in Sprague-Dawley rat spleen at 50 mg/kg, po; assay type: ADME, organism-based; settings: in vivo
[18] = Drug uptake in Sprague-Dawley rat lungs at 50 mg/kg, po; assay type: ADME, organism-based, Lung; settings: in vivo
[19] = Drug metabolism in Sprague-Dawley rat assessed as retention time by HPLC/MS analysis; assay type: ADME
Mus musculus [20] = assay: Anticonvulsant activity in Kunming mouse assessed as MES-induced hind limb extension at 100 mg/kg, ip administered 3 hrs before MES stimulation; assay type: functional, organism-based
Mus musculus [21] = assay: Potency index, ratio of ED50 of stiripentol to ED50 of compound anticonvulsant activity in ip dosed Kunming mouse assessed as MES-induced hind limb extension administered 0.5 hrs before MES stimulation; assay type: functional
[22] = Noncompetitive inhibition of human LDH1 at 0.5 mM using sodium pyruvate as substrate by UV-VIS spectrophotometry method based Lineweaver-Burk plot analysis
[23] = Noncompetitive inhibition of human LDH5 at 0.5 mM using sodium pyruvate as substrate by UV-VIS spectrophotometry method based Lineweaver-Burk plot analysis
Mus musculus [24] = assay: Anticonvulsant activity in Kunming mouse assessed as MES-induced hind limb extension at 100 mg/kg, ip administered 0. 5 hrs before MES stimulation relative to control; assay type: functional

| Compound | Activity (Mus musculus [2]) | Activity (Mus musculus [3]) | Activity (Mus musculus [4]) | selectivity ratio at 0.5 h [5] | inhibition (Homo sapiens) | half-life [7] | AUC at 8 h [8] | half-life [9] | Cmax [10] | bioavailability [11] | Cmax [12] | AUC at 8 h [13] | bioavailability [14] | Vdss [15] | other results |
| --- | --- | --- | --- | --- | --- | --- | --- | --- | --- | --- | --- | --- | --- | --- | --- |
| COc1cc(OC)c(OC)cc1/C=C/COC(=O)/C=C/c1c(OC)cc(OC)c(OC)c1OC | 100% | 75% | 25% | 6.1 | 27% | 22.8 min | 3000 ng·h/mL | 57.9 min | 980 ng/mL | 43.4% | 2040 ng/mL | 2610 ng·h/mL | 34.8% | 11.26 L/kg | Drug uptake [1]: Active; EC50 [6]: 46.3 µM; Drug uptake [16]: Active; Drug uptake [17]: Active; Drug uptake [18]: Active; Retention_time [19]: 40.6 min |
| COc1cc(OC)c(OC)cc1/C=C/COC(=O)/C=C/c1cc(OC)c(OC)c(OC)c1OC | 100% | 75% | 75% | > 6.4 | 15% | 19.7 min | 2940 ng·h/mL | 55.8 min | 880 ng/mL | 41.3% | 1890 ng/mL | 2310 ng·h/mL | 31.4% | 9.98 L/kg | Activity (Mus musculus [20]): Active; Ratio ED50 (Mus musculus [21]): 3.96; Ki [22]: 1.77 µM; Ki [23]: 4.84 µM; Activity (Mus musculus [24]): 100% |
